Where a name gives a salt, the structure may show the parent alone. Starred links: 1 amine or outer side, 2 acyl side, 3 side chain; linkers in the order of their positions; H or OH if unused. Non-standard residues stand in square brackets, D forms with d. Residues, ends and D or L forms follow the SMILES beside them. Groups on a side chain read outwards from the residue. *: point of attachment. DOTA = O=C(O)CN1CCN(CC(=O)O)CCN(CC(=O)*)CCN(CC(=O)O)CC1; Phe(4-CH2NH2) = NCc1ccc(C[C@H](N)C(=O)O)cc1; Piperazinyl(4-CH2COOH) = O=C(O)CN1CCN(*)CC1; 3Pal(6-NH2) = Nc1ccc(C[C@H](N)C(=O)O)cn1; AEF = NCCOc1ccc(C[C@H](N)C(=O)O)cc1; NMeF = CN[C@@H](Cc1ccccc1)C(=O)O; αMeD = C[C@](N)(CC(=O)O)C(=O)O; Ahp(2) = CCCCC[C@H](N)C(=O)O; Nphe = O=C(O)CNCc1ccccc1; AEEA = NCCOCCOCC(=O)O; CO = O=C([*:1])[*:2]; Sar = CNCC(=O)O Bounds are passed on as bounds.

For assay [1], the target named is T1, mouse FAP (Mus musculus, UniProt P97321).
T1 construct: biotinylated His, Avi tag, mouse FAP (26-761, FAP-M82Q5); His; Avi tag (biotinylated); purchased AcroBiosystems FAP-M82Q5
T1 sequence (P97321 26-761): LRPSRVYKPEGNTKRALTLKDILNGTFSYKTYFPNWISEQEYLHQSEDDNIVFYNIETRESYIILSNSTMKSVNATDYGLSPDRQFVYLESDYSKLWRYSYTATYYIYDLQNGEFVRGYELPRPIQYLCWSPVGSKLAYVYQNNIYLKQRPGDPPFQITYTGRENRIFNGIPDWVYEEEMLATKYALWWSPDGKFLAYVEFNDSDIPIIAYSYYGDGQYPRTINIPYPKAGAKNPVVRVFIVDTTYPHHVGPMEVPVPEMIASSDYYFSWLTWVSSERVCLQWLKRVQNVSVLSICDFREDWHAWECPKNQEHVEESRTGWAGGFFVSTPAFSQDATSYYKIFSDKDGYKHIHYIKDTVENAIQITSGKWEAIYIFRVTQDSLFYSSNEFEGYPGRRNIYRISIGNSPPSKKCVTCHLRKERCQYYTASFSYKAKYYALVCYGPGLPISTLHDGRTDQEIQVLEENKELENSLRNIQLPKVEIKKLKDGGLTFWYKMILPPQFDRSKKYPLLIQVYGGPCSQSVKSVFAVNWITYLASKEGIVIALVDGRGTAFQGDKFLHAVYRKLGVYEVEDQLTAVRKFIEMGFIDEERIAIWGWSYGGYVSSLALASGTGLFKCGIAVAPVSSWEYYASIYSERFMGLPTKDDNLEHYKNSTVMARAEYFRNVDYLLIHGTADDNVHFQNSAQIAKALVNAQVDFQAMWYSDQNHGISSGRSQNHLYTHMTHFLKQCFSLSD
In words: Enzymatic FAP competition assay (Z-Gly-Pro-AMC fluorescence), mouse FAP. The class given is biochemical. Particulars: read-out: m. FAP, Enz., IC50. The method, boiled down:
(§1)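 IC50 values come from curve fitting of duplicate % inhibition data on AMC fluorescence (ex 380, em 460 nm) after 4 h at 22-24° C with 50 μM Z-Gly-Pro-AMC. Beforehand, peptides up to 1 μM (14 levels) sat 24 h with 0.01 nM human (26-760) or mouse (26-761) tagged FAP in phosphate buffer pH 7.5, NaCl, Tween20, 1% DMSO.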

For assay [2], the target named is T1, mouse FAP. In words: Surface plasmon resonance (SPR) for peptide affinity, mouse FAP. The class given is binding. In outline: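 KD values come from a 1:1 kinetic fit of single-cycle SPR data: 8 peptide concentrations, 25 °C, 30 μL/min, HEPES-buffered saline pH 7.6 with 2% DMSO. Targets were His/Avi-tagged human (26-760) or mouse (26-761) FAP, amine-coupled to CM5 or held on a CAPture chip.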

For assay [3], the target named is T2, human FAP (Homo sapiens, UniProt Q12884).
T2 construct: the biotinylated His, Avi tag, human FAP (26-760, FAP-H82Q6); His; Avi tag (biotinylated); purchased AcroBiosystems FAP-H82Q6
T2 sequence (Q12884 26-760): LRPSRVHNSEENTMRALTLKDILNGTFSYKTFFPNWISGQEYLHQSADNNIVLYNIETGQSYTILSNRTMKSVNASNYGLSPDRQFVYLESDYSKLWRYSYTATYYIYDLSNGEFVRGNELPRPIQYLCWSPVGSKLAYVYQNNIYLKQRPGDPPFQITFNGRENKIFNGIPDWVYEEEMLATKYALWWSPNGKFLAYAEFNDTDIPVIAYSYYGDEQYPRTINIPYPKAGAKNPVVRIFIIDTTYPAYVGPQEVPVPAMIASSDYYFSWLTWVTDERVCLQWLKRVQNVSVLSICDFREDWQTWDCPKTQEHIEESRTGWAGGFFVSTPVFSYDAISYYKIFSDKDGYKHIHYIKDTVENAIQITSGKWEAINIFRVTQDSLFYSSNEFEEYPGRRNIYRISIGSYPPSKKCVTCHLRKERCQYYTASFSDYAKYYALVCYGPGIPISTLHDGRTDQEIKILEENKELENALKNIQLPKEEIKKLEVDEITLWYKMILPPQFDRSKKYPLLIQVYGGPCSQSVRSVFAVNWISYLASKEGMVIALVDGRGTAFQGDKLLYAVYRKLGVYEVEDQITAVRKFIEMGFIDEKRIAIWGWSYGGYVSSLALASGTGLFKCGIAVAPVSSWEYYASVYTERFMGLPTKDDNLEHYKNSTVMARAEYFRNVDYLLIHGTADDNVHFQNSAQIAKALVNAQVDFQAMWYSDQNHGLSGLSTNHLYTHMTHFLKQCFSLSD
Description: Enzymatic FAP competition assay (Z-Gly-Pro-AMC fluorescence), human FAP. The format is biochemical. Particulars: read-out: h. FAP, Enz., IC50. In outline: as §1

On to `CCCCC[C@@H]1NC(=O)[C@H](Cc2ccc(O)cc2)NC(=O)[C@H](Cc2ccccc2)N(C)C(=O)CNC(=O)CNC(=O)[C@H]2CCCN2C(=O)[C@H](CCC(=O)O)NC(=O)[C@H](Cc2ccc(O)cc2)NC(=O)CNC(=O)[C@H](Cc2c[nH]c3ccccc23)NC1=O` [Example A71, Gly-Gly-NMePhe-Tyr-Ahp-Trp-Gly-Tyr-Glu-D-Pro] (cyclo([Ahp(2)]WGYE[dP]GG[NMeF]Y)), for which the results for the concentration for half-maximal inhibition (IC50) in assay [1] and in assay [3] were 0.61 nM and 0.69 nM, respectively. Binding in assay [2] was characterised by a dissociation constant (Kd) of 0.242 nM.
For `CCCCC[C@@H]1NC(=O)[C@H](Cc2ccc(O)cc2)NC(=O)[C@H](Cc2ccccc2)N(C)C(=O)CNC(=O)CNC(=O)[C@H]2CCCN2C(=O)[C@](C)(CC(=O)O)NC(=O)[C@H](Cc2ccc(O)cc2)NC(=O)CNC(=O)[C@H](Cc2c[nH]c3ccccc23)NC1=O` [Example A72, Gly-Gly-NMePhe-Tyr-Ahp-Trp-Gly-Tyr-aMeD-D-Pro] (cyclo([Ahp(2)]WGY[αMeD][dP]GG[NMeF]Y)), the IC50 in assay [1] was found to be 1000 nM; in assay [3], 237 nM. The compound also displayed a dissociation constant Kd in assay [2] above 6000 nM.
On the same counts, the results for `CCCCC[C@@H]1NC(=O)[C@H](Cc2ccc(O)cc2)NC(=O)[C@H](Cc2ccccc2)N(C)C(=O)CNC(=O)CN(C)C(=O)[C@H]2CCCN2C(=O)[C@H](CC(=O)O)NC(=O)[C@H](Cc2ccc(O)cc2)NC(=O)CNC(=O)[C@H](Cc2c[nH]c3ccccc23)NC1=O` [Example A73, 2-((9S,12S,15S,18S,24S,27S,32aR)-18-((1H-indol-3-yl)methyl)-9-benzyl-12,24-bis(4-hydroxybenzyl)-2,8-dimethyl-1,4,7,10,13,16,19,22,25,28-decaoxo-15-pentyldotriacontahydropyrrolo[1,2-a][1,4,7,10,13,16,19,22,25,28]decaazacyclotriacontin-27-yl)acetic acid] (cyclo([Ahp(2)]WGYD[dP][Sar]G[NMeF]Y)) are 0.101 nM, 0.028 nM and 0.081 nM.
With `CCCCC[C@@H]1NC(=O)[C@H](Cc2ccc(O)cc2)NC(=O)[C@H](Cc2ccccc2)N(C)C(=O)CNC(=O)CNC(=O)[C@H]2CCCN2C(=O)[C@H](CC(=O)O)NC(=O)CN(Cc2ccccc2)C(=O)CNC(=O)[C@H](Cc2c[nH]c3ccccc23)NC1=O` [Example A74, Gly-Gly-NMePhe-Tyr-Ahp-Trp-Gly-NBnG-Asp-D-Pro] (cyclo(GG[NMeF]Y[Ahp(2)]WG[Nphe]D[dP])), the IC50 in assay [1] came to 3.3 nM; in assay [3], 1.4 nM. In addition, the affinity in assay [2], expressed as Kd, was 4.6 nM.
`CCCCC[C@@H]1NC(=O)[C@H](Cc2ccc(OCCNC(=O)CN3CCN(CC(=O)O)CCN(CC(=O)O)CCN(CC(=O)O)CC3)cc2)NC(=O)[C@H](Cc2ccccc2)N(C)C(=O)CNC(=O)CNC(=O)[C@H]2CCCN2C(=O)[C@H](CC(=O)O)NC(=O)[C@H](CCCCNC(=O)N2CCN(CC(=O)O)CC2)NC(=O)CNC(=O)[C@H](Cc2c[nH]c3ccccc23)NC1=O` [Example B3, Gly-Gly-NMePhe-F(4OEtNHDOTA)-Ahp-Trp-Gly-K(COpipzaa)-Asp-D-Pro] (cyclo([AEF](DOTA)[Ahp(2)]WGK([CO-Piperazinyl(4-CH2COOH)])D[dP]GG[NMeF])): the concentration for half-maximal inhibition (IC50) was determined as 0.091 nM in assay [1] and 0.025 nM in assay [3]. This compound showed a Kd in assay [2] of 0.093 nM.
On the same counts, the results for `CCCCC[C@@H]1NC(=O)[C@H](Cc2ccc(CNC(=O)COCCOCCNC(=O)CN3CCN(CC(=O)O)CCN(CC(=O)O)CCN(CC(=O)O)CC3)cc2)NC(=O)[C@H](Cc2ccccc2)N(C)C(=O)CNC(=O)CNC(=O)[C@H]2CCCN2C(=O)[C@H](CC(=O)O)NC(=O)[C@H](Cc2ccc(O)cc2)NC(=O)CNC(=O)[C@H](Cc2c[nH]c3ccccc23)NC1=O` [Example B16, Gly-Gly-NMePhe-F(4amPEG2NHDOTA)-Ahp-Trp-Gly-Tyr-Asp-D-Pro, TFA salt] (cyclo([Ahp(2)]WGYD[dP]GG[NMeF][Phe(4-CH2NH2)]([AEEA-DOTA]))) are 0.03 nM, 0.009 nM and 0.01 nM.
Taken in the same sequence, the figures for `CCCCC[C@@H]1NC(=O)[C@H](Cc2ccc(CNC(=O)CN3CCN(CC(=O)O)CCN(CC(=O)O)CCN(CC(=O)O)CC3)cc2)NC(=O)[C@H](Cc2ccccc2)N(C)C(=O)CNC(=O)CNC(=O)[C@H]2CCCN2C(=O)[C@H](CC(=O)O)NC(=O)[C@H](Cc2ccc(O)cc2)NC(=O)CNC(=O)[C@H](Cc2c[nH]c3ccccc23)NC1=O` [Example B17, Gly-Gly-NMePhe-F(4amDOTA)-Ahp-Trp-Gly-Tyr-Asp-D-Pro, TFA salt] (cyclo([Ahp(2)]WGYD[dP]GG[NMeF][Phe(4-CH2NH2)](DOTA))) were 0.158 nM, 0.033 nM and 0.133 nM.
On the same counts, the results for `CCCCC[C@@H]1NC(=O)[C@H](Cc2ccc(OCCNC(=O)CN3CCN(CC(=O)O)CCN(CC(=O)O)CCN(CC(=O)O)CC3)cc2)NC(=O)[C@H](Cc2ccccc2)N(C)C(=O)CNC(=O)CNC(=O)[C@H]2CCCN2C(=O)[C@H](CC(=O)O)NC(=O)[C@H](Cc2ccc(O)cc2)NC(=O)CNC(=O)[C@H](Cc2c[nH]c3ccccc23)NC1=O` [Example B23, Gly-Gly-NMePhe-F(4OEtNHDOTA)-Ahp-Trp-Gly-Tyr-Asp-D-Pro, TFA salt] (cyclo([AEF](DOTA)[Ahp(2)]WGYD[dP]GG[NMeF])) are 0.059 nM, 0.012 nM and 0.077 nM.
As to `CCCCC[C@@H]1NC(=O)[C@H](Cc2ccc(OCCNC(=O)CN3CCN(CC(=O)O)CCN(CC(=O)O)CCN(CC(=O)O)CC3)cc2)NC(=O)[C@H](Cc2ccccc2)N(C)C(=O)CNC(=O)CNC(=O)[C@H]2CCCN2C(=O)[C@H](CC(=O)O)NC(=O)[C@H](Cc2ccc(N)nc2)NC(=O)CNC(=O)[C@H](Cc2c[nH]c3ccccc23)NC1=O` [Example B24, Gly-Gly-NMePhe-F(4OEtNHDOTA)-Ahp-Trp-Gly-3PyA(6NH2)-Asp-D-Pro, TFA salt] (cyclo([AEF](DOTA)[Ahp(2)]WG[3Pal(6-NH2)]D[dP]GG[NMeF])), the concentration for half-maximal inhibition (IC50) in assay [1] was found to be 0.108 nM; in assay [3], 0.012 nM. Besides, the dissociation constant Kd in assay [2] was 0.066 nM.
Turning to `CCCCC[C@@H]1NC(=O)[C@H](Cc2ccc(OCCNC(=O)CN3CCN(CC(=O)O)CCN(CC(=O)O)CCN(CC(=O)O)CC3)cc2)NC(=O)[C@H](Cc2ccccc2)N(C)C(=O)CNC(=O)[C@H](CCCCNC(=O)N2CCN(CC(=O)O)CC2)NC(=O)[C@H]2CCCN2C(=O)[C@H](CC(=O)O)NC(=O)[C@H](Cc2ccc(O)cc2)NC(=O)CNC(=O)[C@H](Cc2c[nH]c3ccccc23)NC1=O` [Example B25, K(COpipzaa)-Gly-NMePhe-F(4OEtNHDOTA)-Ahp-Trp-Gly-Tyr-Asp-D-Pro] (cyclo([AEF](DOTA)[Ahp(2)]WGYD[dP]K([CO-Piperazinyl(4-CH2COOH)])G[NMeF])), the IC50 in assay [1] is 0.38 nM; in assay [3] it was 0.1 nM. The compound also displayed a dissociation constant Kd in assay [2] of 0.44 nM.

The values are drawn from patent US20250090699A1, “FAP TARGETING CYCLIC PEPTIDES AND CONJUGATES THEREOF” (Novartis AG, priority 2023, published 2025).
